From patent US8168651B2, “Protein kinase modulators” (Cylene Pharmaceuticals, Inc., priority 2008, dated 2012)
Like-named read-outs stand apart in the source and are kept apart here.

Tests used:
PARP-HSA enzyme = PARP-HSA enzyme (Homo sapiens (Human), UniProt P09874); test: PARP assay (chemiluminescent PARP assay kit, Trevigen); assay type: biochemical; conditions: for IC50: read-out: PARP Inhibition IC50
Procedure: Modulatory activity of compounds described herein was assessed in vitro in cell-free CK2 assays. Modulatory activity of compounds described herein also are assessed in vitro in cell-free PARP assays. These assays are described hereafter.
PARP assays are conducted using a chemiluminescent PARP assay kit (Trevigen). Briefly, reactions are performed in Histone-coated strip wells, by adding 10 microliters test compound dissolved in 1×PARP Buffer (prepared by mixing 20×PARP buffer diluted with high-purity water) and 15 microliters diluted PARP-HSA enzyme (diluted in 1×PARP buffer, 0.1 unit per well) to 25 microliters PARP cocktail (prepared from 10×PARP cocktail and 10× activated DNA, both 2.5 microliters per well and 20 microliters per well of 1×PARP buffer). The reactions are incubated at ambient temperature for 60 minutes, then the liquid was removed. After washing the wells four times with PBS (200 ul), 50 microliters of STREP-HRP (Horseradish Peroxidase) solution (diluted 500-fold in 1× Strep-Diluent) was added and the reactions were allowed to incubate for 30 minutes at ambient temperature. The liquid was removed and, after washing the wells four times with PBS (200 ul), 50 microliters each of PeroxyGlo A and B (Chemiluminescent Horseradish Peroxidase substrates) are added and the resulting chemiluminescence quantified on the SpectraMax M5 plate reader.

recombinant human CK2 = recombinant human CK2 (Homo sapiens (Human), UniProt P68400); test: CK2 assay (cell-free, 33P-ATP filter plate); assay type: biochemical; conditions: for inhibition at 5 µM: read-out: CK2 Inhibition; for inhibition at 10 µM: read-out: CK2 % inhib @ 10 uM
Chain of recombinant human CK2 (P68400 whole entry): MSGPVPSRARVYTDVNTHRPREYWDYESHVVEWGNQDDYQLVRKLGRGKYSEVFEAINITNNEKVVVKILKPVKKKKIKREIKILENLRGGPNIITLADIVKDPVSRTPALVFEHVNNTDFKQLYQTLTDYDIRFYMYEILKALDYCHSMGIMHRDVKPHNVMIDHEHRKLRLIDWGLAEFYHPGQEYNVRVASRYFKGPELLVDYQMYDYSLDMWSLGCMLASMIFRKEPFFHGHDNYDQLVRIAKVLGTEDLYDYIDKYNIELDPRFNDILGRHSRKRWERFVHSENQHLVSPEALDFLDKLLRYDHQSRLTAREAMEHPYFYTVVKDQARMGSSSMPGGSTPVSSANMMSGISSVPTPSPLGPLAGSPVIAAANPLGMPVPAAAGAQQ
Chain of recombinant human CK2 (P67870 whole entry partner): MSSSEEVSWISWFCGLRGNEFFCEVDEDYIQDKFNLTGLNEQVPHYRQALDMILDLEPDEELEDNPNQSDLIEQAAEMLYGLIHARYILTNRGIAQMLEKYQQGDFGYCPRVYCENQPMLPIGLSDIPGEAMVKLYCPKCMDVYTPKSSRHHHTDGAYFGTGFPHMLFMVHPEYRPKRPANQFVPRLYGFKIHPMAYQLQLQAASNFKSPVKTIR

Jurkat = test: Cell proliferation modulatory activity, Jurkat; assay type: cell-based; conditions: Homo sapiens
recombinant human PIM1 = recombinant human PIM1 (Homo sapiens (Human), UniProt P11309); test: PIM-1 kinase activity in cell-free in vitro assay; assay type: biochemical; conditions: cell-free; for inhibition at 0.5 µM: 500 nM compound, read-out: PIM-1: % inh 500 nM
Chain of recombinant human PIM1 (P11309 whole entry): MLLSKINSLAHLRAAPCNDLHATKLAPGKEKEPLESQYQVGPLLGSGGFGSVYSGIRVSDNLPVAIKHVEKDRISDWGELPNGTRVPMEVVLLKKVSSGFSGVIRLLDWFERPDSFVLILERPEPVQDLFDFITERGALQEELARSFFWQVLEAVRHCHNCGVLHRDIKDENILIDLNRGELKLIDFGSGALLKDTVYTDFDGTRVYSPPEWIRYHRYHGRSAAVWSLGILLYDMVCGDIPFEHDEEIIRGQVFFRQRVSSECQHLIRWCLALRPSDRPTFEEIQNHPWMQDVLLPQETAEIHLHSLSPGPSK

[1] = system: HCT-116 human colorectal carcinoma cells; test: Cell-proliferation assay using Alamar Blue dye; assay type: cell-based; conditions: Homo sapiens;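 further: cells exposed to compound for about 4 days, then Alamar Blue added and dye fluorescence read after about 4 h, compared with medium-only control wells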
MV-4-11 = test: Cell proliferation modulatory activity, MV-4-11; assay type: cell-based; conditions: Homo sapiens, MV4-11
K-562 = test: Cell proliferation modulatory activity, K-562; assay type: cell-based; conditions: Homo sapiens, K562
Flt3 = Flt3 (Homo sapiens (Human), UniProt P36888); test: FLT-3 kinase activity in cell free in vitro assay; assay type: biochemical; conditions: cell-free; read-out: FLT-3
Chain of Flt3 (P36888 27-993): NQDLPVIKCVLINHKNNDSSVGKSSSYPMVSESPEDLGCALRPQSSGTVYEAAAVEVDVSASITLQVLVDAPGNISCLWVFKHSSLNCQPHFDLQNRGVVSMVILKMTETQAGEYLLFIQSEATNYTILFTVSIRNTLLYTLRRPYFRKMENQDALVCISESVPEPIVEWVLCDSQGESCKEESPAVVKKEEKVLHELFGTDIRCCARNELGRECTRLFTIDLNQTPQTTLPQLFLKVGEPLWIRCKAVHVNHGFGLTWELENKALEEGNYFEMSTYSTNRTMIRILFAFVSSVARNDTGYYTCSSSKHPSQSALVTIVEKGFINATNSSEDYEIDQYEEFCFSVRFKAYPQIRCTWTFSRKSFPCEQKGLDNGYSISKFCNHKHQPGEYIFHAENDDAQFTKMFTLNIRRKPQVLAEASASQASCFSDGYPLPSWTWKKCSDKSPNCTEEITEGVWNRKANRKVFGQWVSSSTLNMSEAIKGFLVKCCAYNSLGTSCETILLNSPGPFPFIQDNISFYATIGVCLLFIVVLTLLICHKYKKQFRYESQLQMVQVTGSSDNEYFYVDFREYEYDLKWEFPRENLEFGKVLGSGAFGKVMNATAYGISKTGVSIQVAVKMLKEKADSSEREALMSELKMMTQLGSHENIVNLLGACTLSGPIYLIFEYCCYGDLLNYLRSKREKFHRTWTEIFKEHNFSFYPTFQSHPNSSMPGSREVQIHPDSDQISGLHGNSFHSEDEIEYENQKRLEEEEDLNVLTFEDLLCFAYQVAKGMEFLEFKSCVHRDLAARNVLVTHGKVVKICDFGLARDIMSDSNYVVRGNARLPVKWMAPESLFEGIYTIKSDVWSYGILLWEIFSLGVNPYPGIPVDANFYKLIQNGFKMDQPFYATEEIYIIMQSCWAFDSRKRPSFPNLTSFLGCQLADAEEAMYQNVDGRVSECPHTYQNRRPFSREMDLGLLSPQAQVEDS

[2] = HCT-116, read-out: HCT-116 (uM), cell proliferation modulatory activity, HCT-116, second column

Chain of PARP-HSA enzyme (P09874 whole entry): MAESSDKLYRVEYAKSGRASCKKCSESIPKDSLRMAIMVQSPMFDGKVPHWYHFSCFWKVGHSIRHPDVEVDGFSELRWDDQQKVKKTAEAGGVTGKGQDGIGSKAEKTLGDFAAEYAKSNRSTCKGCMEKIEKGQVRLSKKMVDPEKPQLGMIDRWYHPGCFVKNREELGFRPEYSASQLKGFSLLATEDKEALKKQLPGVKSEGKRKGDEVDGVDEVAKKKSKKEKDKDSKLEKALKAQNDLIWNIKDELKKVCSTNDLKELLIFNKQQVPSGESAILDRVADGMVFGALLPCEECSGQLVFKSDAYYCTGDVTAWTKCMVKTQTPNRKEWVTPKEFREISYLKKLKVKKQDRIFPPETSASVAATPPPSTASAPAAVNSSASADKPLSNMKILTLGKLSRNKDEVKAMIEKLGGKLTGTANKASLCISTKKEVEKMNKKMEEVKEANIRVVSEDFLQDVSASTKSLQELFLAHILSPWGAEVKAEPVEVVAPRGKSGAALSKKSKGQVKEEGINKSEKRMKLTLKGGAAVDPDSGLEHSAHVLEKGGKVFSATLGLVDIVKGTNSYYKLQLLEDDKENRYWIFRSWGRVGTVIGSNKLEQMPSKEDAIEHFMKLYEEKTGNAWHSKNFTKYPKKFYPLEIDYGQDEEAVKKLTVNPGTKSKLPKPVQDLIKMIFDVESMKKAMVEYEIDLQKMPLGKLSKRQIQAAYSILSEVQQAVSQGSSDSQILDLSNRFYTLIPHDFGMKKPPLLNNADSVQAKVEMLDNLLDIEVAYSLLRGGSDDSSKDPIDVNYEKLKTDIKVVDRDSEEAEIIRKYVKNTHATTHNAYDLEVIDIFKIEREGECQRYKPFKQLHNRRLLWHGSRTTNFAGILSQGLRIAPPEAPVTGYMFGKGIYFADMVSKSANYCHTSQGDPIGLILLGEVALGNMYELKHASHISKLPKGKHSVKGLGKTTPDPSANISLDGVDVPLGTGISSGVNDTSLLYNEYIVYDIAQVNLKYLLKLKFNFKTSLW

PARP % inhib @ 1 uM (PARP-HSA enzyme) [%]	IC50 (Jurkat) [µM]	inhibition at 0.5 µM (recombinant human PIM1) [%]	IC50 (recombinant human PIM1) [nM]	IC50 (MV-4-11) [µM]	IC50 (K-562) [µM]	Compound	other results
–	–	–	–	–	–	O=C(O)c1ccc2c(c1)[nH]c(=O)c1ccccc12	IC50 (PARP-HSA enzyme): 70 nM; inhibition at 5 µM (recombinant human CK2): 28%
–	–	–	–	–	–	O=C(O)c1ccc2c3ccccc3c(=O)n(CCCO)c2c1	IC50 (PARP-HSA enzyme): 60 nM; inhibition at 5 µM (recombinant human CK2): 29%
–	–	–	–	–	–	O=c1[nH]c2cc(-c3nnn[nH]3)ccc2c2ccccc12	IC50 (PARP-HSA enzyme): 30 nM
–	–	–	–	–	–	O=C(O)c1ccc2c(c1)[nH]c(=O)c1ccncc12	IC50 (PARP-HSA enzyme): 1000 nM
0	–	–	–	–	–	O=C(Nc1ccccc1)c1ccc2c(c1)[nH]c(=O)c1ccsc12	inhibition at 10 µM (recombinant human CK2): 22%
0	–	–	–	–	–	COc1ccc(NC(=O)c2ccc3c(c2)[nH]c(=O)c2ccsc23)c(OC)c1	inhibition at 10 µM (recombinant human CK2): 3%
0	–	–	–	–	–	O=C(Nc1ccc(N2CCOCC2)cc1)c1ccc2c(c1)[nH]c(=O)c1ccsc12	inhibition at 10 µM (recombinant human CK2): -3%
0	–	–	–	–	–	COc1ccccc1NC(=O)c1ccc2c(c1)[nH]c(=O)c1ccsc12	inhibition at 10 µM (recombinant human CK2): -7%
21	–	–	–	–	–	O=C(O)c1ccc2c3sccc3c(=O)n(CCCO)c2c1	–
39	–	–	–	–	–	O=c1[nH]c2cc(-c3nn[nH]n3)ccc2c2sccc12	–
5	–	–	–	–	–	CN(C)CCn1c(=O)c2ccsc2c2ccc(C(=O)O)cc21	–
–	6.12	15.7	454	8.33	> 10	O=C(O)c1ccc2c(c1)nc(Nc1ccccc1)c1ccsc12	IC50 ([1]; HCT-116, read-out: HCT-116 (uM), cell proliferation modulatory activity, HCT-116, first column): 10 µM; IC50 [1, 2]: > 10 µM
–	6.52	75.9	88	1.12	5.86	COc1cccc(Nc2nc3cc(C(=O)O)ccc3c3cnccc23)c1	IC50 (Flt3): 9 nM
–	2.68	82	115	1.7	7.44	O=C(O)c1ccc2c(c1)nc(Nc1ccc(F)c(Cl)c1)c1ccncc12	IC50 [1, 2]: 4.34 µM; IC50 (Flt3): 41 nM
–	5.86	84.4	82	0.333	> 10	O=C(O)c1ccc2c(c1)nc(Nc1cc(F)cc(F)c1)c1ccsc12	IC50 [1, 2]: > 10 µM
–	5.92	82.7	136	0.475	> 10	O=C(O)c1ccc2c(c1)nc(Nc1cccc(F)c1)c1ccsc12	IC50 [1, 2]: > 10 µM
–	0.882	68.2	370	> 10	1.13	O=C(O)c1ccc2c(c1)nc(Nc1cccc(Cl)c1)c1ncncc12	IC50 [1, 2]: 7.19 µM
